For data set [1], the system named is astrocytes of the hippocampus (stratum radiatum), TRPA1 channel. Nature of the data set: Acute application on acute hippocampal slices: astrocyte calcium imaging. Type of data set: cell-based, mouse. The note with it: 40 μM, APP/PS1-21 mice 1-month old. As to the method: Coronal sections of the hippocampus (thickness 300 μm) were prepared from APP/PS1-21 transgenic mice (1 month and 3 months old) or from WT mice from the same litter. The mice were sacrificed by decerebration and decapitation. The brain was quickly removed and sectioned in ice-cold ACSF containing (in mM) : 2.5 KCl, 7 MgCl2, 0.5 CaCl2, 1.2 NaHPO4, 25 NaHCO3, 11D-glucose and 234 sucrose bubbled with 95% of O2 and 5% of CO2 with a VT1200S vibratome (Leica, Germany). The sections containing the hippocampus were placed in ACSF containing (in mM) : 126 NaCl, 2.5 KCl, 1.2 MgCl2, 2.5 CaCl2, 1.2 NaH2PO4 bubbled with 95% of O2 and 5% of CO2 and supplemented with 1 mM of sodium pyruvate at room temperature for a recovery period.
300 μm coronal sections were transferred to a chamber allowing constant perfusion with ACSF at room temperature, bubbling with 95% of O2 and 5% of CO2 on the upright microscope tray (Eclipse E600 FN, Nikon, France) equipped with a 60× (NA 1.0) water immersion objective and infrared interference contrast optical systems with a CCD camera (Optronis VX45, Germany). […] The signals were amplified by Axopatch 200B, sampled by a Digidata 1440A interface and recorded by the pClamp8 software (Molecular Devices, USA). […] The input resistance was calculated by measuring the current in response to a 10 mV pulse of 80 ms duration near the end of the voltage command.

The subject of data set [2] is stratum radiatum synapses of APP/PS1-21 and WT mice. Nature of the data set: Chronic intraperitoneal treatment: electron microscopy of astrocyte coverage of synapses. The note with it: 3-months old, i.p. treatment. Type of data set: in vivo, mouse. As to the method:
This solution is then diluted to 1 μg/μl in an isotonic solution containing 1% Pluronic F-127 and 0.9% NaCl. The animals are injected daily intraperitoneally at a dose of 5 mg/kg of body mass. Sterile 0.5 ml BD MicroFine syringes with no dead volume, equipped with a 30G (0.3 mm) needle are used for the injections. The injection is started from the 14th postnatal day (appearance of the expression of the Thy1gene promoter in the hippocampus, triggering the overexpression of Aβ in the APP/PS1-21 murine model) Hippocampi were dissected and fixed with 1.7% of glutaraldehyde in 0.1 M phosphate buffer at pH 7.4 for 48 hours at room temperature. The CA1 region was dissected under a binocular magnifying glass and fixed again for 2 hours in the same solution. Samples were then washed with buffer and post-fixed with 1% of osmium tetroxide and 0.1M phosphate buffer with pH 7.2 for 1 hour at 4° C. After thorough washing with water, the cells were then stained with 1% of uranil acetate with pH 4 in water for 1 hour at 4° C. before being dehydrated by successive alcohol baths (30%-60%-90%-100%-100%-100%) and incubated with a 1:1 epon/ethanol at 100% mixture for 1 hour and several baths of fresh epoxy resin (Sigma-Aldrich, France) for 3 hours. Finally, the samples were included in a capsule filled with resin which was allowed to polymerize for 72 h at 60° C. […]

The test system of a further data set is WT control animals. Nature of the data set: Chronic intraperitoneal treatment: overall effect on WT control animals. The class given is in vivo. The note with it: daily injection from the 14th to the 90th postnatal day. As to the method: This solution is then diluted to 1 μg/μl in an isotonic solution containing 1% Pluronic F-127 and 0.9% NaCl. The animals are injected daily intraperitoneally at a dose of 5 mg/kg of body mass. Sterile 0.5 ml BD MicroFine syringes with no dead volume, equipped with a 30G (0.3 mm) needle are used for the injections.
The injection is started from the 14th postnatal day (appearance of the expression of the Thy1gene promoter in the hippocampus, triggering the overexpression of Aβ in the APP/PS1-21 murine model)

In another data set the target is human forms of TRPA1 (Homo sapiens, UniProt O75762). The note with it: McNamara et al. 2007, read-out: CI50 (the source's name); cited from earlier work.
Another data set has as its system rodent forms of TRPA1. The note with it: McNamara et al. 2007, Eid et al. 2008, read-out: CI50 (the source's name); cited from earlier work.

Each structure is given as a SMILES string. Entries after “also recorded” stand apart in the source; their conditions may differ.

human forms of TRPA1, sequence (O75762 whole entry): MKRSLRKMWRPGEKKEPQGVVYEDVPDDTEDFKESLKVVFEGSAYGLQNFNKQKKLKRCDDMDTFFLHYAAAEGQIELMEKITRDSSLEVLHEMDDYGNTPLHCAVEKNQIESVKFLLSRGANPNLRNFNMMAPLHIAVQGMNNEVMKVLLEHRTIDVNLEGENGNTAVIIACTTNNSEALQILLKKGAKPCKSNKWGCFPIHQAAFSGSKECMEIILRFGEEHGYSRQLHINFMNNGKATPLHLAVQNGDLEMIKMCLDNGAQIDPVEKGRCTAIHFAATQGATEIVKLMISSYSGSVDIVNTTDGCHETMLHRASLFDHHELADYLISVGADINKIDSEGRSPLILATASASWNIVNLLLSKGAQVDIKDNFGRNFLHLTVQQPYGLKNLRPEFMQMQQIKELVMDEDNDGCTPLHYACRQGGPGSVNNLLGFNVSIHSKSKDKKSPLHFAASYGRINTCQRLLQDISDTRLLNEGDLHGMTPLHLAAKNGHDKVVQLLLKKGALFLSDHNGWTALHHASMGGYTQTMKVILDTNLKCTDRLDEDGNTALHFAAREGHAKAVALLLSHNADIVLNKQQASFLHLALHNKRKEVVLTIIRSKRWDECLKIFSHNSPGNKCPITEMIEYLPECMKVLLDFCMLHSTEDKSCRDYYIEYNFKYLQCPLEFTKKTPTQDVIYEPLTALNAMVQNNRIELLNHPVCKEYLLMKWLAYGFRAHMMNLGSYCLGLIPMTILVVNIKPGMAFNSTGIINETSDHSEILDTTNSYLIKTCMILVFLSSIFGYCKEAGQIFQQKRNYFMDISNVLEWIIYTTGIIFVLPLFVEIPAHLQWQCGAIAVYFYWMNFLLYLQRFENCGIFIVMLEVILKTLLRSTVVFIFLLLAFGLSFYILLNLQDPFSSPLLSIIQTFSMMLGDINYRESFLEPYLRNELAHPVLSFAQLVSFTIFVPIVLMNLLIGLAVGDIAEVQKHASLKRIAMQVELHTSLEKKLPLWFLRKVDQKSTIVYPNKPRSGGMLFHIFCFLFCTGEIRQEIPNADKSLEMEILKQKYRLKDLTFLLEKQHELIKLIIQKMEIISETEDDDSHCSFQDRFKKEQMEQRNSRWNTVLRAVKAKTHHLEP

On to `CC(C)c1ccc(NC(=O)Cn2cnc3c2c(=O)n(C)c(=O)n3C)cc1` [HC030031, 2-(1,3-Dimethyl-2,6-dioxo-1,2,3,6-tetrahydro-7H-purin-7-yl)-N-(4-isopropylphenyl)acetamide], for which, in data set [1], the astrocyte calcium hyperactivity entry is listed as “fully restored; also recorded: inhibited”. In data set [2] (APP/PS1 mice), the “synapses enveloped (astrocyte coverage of stratum radiatum synapses)” value was determined as 64.0±1.5%. Moreover, in data set [2] (WT mice), the “synapses enveloped (astrocyte coating)” value is 62.7±2.7%. Further, the “effect at the functional level and at the structural level” value in the data set with WT control animals is listed as “no effect”. Moreover, the IC50 on human forms of TRPA1 was roughly 6.2 µM; with rodent forms of TRPA1 it was 7.6 µM.

The values are drawn from patent US20230372350A1, “ASTROCYTIC TRPA1 CHANNEL INHIBITION AS A NOVEL NEUROPROTECTIVE THERAPEUTIC TARGET IN THE PRODROMAL PHASES OF ALZHEIMER'S DISEASE” (priority 2020, published 2023).
